The target of the test is T1, Human plasma kallikrein (PK) (Homo sapiens, UniProt P03952).
T1 construct: purchased Haemtech Technologies (Essex Junction, Vt.)
The experiment in a line: Inhibition of human plasma kallikrein amidolytic activity (H-D-Pro-Phe-Arg-pNA cleavage, A405). The test is classed as biochemical. The method, then: Human plasma kallikrein (PK) was obtained from Haemtech Technologies (Essex Junction, Vt.). The enzymatic activity of PK was assayed using the synthetic peptide substrate H-D-Pro-Phe-Arg-pNA (Bachem, Inc., Switzerland) with the cleavage of the substrate by the enzyme resulting in an increase in A405, measured using a Molecular Devices Vmax Kinetic Microplate Reader. The uninhibited (control) activity of PK was determined by adding 190 μl of PK solution (1 nM in 0.05 M HEPES, pH 7.5, 0.01% Triton X-100) to 10 μl of H-D-Pro-Phe-Arg-pNA (2 mM in DMSO) in individual microtiter plate wells, mixed immediately by shaking, and the rate of increase in A405 determined over 120-180 sec. In parallel, compounds of the present invention were mixed in separate wells with the synthetic substrate to attain final concentrations of between 0.01-10 μM in the final 200 μl reaction mixture, and the reaction initiated by the addition of 190 μl of the PK solution.
The highest concentration of either compound tested was 10 μM.

Setting [1] is: Table 4 inhibition constants, read-out: Ki.
Setting [2] is: apparent inhibition constant, 1 nM PK, pH 7.5, read-out: PK Kiapp.

Read-outs that look alike come from different tables or passages of the source.

The source of these data is patent US20080038276A1, “INHIBITORS OF PLASMA KALLIKREIN” (Activesite Pharmaceuticals, Inc., priority 2006, published 2008).

T1 sequence (P03952 391-638 limits assumed): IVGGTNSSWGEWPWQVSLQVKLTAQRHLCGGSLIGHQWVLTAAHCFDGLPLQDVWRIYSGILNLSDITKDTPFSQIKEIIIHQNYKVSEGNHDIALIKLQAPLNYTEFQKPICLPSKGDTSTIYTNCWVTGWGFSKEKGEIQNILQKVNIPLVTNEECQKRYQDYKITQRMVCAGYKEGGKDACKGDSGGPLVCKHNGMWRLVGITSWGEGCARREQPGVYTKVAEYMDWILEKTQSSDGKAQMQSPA
T1 sequence (P03952 20-390 partner limits assumed): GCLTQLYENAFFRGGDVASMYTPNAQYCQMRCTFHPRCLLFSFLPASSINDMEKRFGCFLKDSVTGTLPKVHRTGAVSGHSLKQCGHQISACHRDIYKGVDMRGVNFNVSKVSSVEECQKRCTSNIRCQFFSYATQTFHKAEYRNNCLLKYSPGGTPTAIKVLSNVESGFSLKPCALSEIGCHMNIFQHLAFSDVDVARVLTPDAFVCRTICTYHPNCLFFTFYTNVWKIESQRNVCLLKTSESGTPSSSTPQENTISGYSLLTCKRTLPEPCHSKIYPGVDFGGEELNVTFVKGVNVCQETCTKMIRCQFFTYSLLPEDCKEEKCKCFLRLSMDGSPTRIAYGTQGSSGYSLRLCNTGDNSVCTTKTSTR

With `N=C(N)c1ccc(CNC(=O)c2cn(S(=O)(=O)c3ccccc3)c3ccccc23)cc1` (single isomer, unassigned) [compound 2], the Ki under setting [1] was found to be 30 nM.

Regarding `N=C(N)c1ccc(CNC(=O)c2cnn(Cc3ccccc3)c2)cc1` (single isomer, unassigned) [compound 3], the Ki under setting [1] was found to be 150 nM.

Turning to `Cc1nc(-c2ccccc2)sc1C(=O)NCc1ccc(C(=N)N)cc1` [ASP-373, 4-Methyl-2-phenyl-thiazole-5-carboxylic acid 4-carbamimidoyl-benzylamide], the Ki under setting [2] is 8870 nM.

In the case of `N=C(N)c1ccc(CNC(=O)c2cn(Cc3ccccc3)c3ccccc23)cc1` [ASP-381, 1-Benzyl-1H-indole-3-carboxylic acid 4-carbamimidoyl-benzylamide], under “PK Kiapp, apparent inhibition constant, 1 nM PK, pH 7.5”, the Ki worked out at 240 nM.

As for `N=C(N)c1ccc(CNC(=O)c2cn(S(=O)(=O)c3ccccc3)c3ccccc23)cc1` [ASP-383, 1-Benzenesulfonyl-1H-indole-3-carboxylic acid 4-carbamimidoyl-benzylamide], the Ki under setting [2] came to 170 nM.

Take `N=C(N)c1ccc(CNC(=O)c2cnn(-c3ccccc3)c2)cc1` [ASP-445, 1-Phenyl-1H-pyrazole-4-carboxylic acid 4-carbamimidoyl-benzylamide]: the Ki under setting [2] stood at 1430 nM.

On to `Cc1oc(-c2ccccc2)cc1C(=O)NCc1ccc(C(=N)N)cc1` [ASP-466, 2-Methyl-5-phenyl-furan-3-carboxylic acid 4-carbamimidoyl-benzylamide], for which, under setting [2], the Ki amounted to 1290 nM.

In the case of `N=C(N)c1ccc(CNC(=O)c2cc3ccccc3[nH]2)cc1` [ASP-484, 1H-Indole-2-carboxylic acid 4-carbamimidoyl-benzylamide], under setting [2], the Ki was 2520 nM.

`N=C(N)c1ccc(CNC(=O)c2cc3ccccc3o2)cc1` [ASP-485, Benzofuran-2-carboxylic acid 4-carbamimidoyl-benzylamide]: under setting [2], the Ki was found to be 870 nM.

Take `N=C(N)c1ccc(CNC(=O)c2cc3ccccc3s2)cc1` [ASP-486, Benzo[b]thiophene-2-carboxylic acid 4-carbamimidoyl-benzylamide]: the Ki under setting [2] came out at 1570 nM.

In the case of `N=C(N)c1ccc(CNC(=O)c2csc3ccccc23)cc1` [ASP-491, Benzo[b]thiophene-3-carboxylic acid 4-carbamimidoyl-benzylamide], under setting [2], the Ki was 2110 nM.

For the molecule `N=C(N)c1ccc(CNC(=O)c2c[nH]c3ccccc23)cc1` [ASP-493, 1H-Indole-3-carboxylic acid 4-carbamimidoyl-benzylamide], the Ki under setting [2] came out at 2450 nM.

In the case of `N=C(N)c1ccc(CNC(=O)c2ccc(-c3ccccc3)s2)cc1` [ASP-523, 5-Phenyl-thiophene-2-carboxylic acid 4-carbamimidoyl-benzylamide], the Ki under setting [2] turned out to be 7660 nM.

With `N=C(N)c1ccc(CNC(=O)c2ccc(-c3ccccn3)s2)cc1` [ASP-525, 5-Pyridin-2-yl-thiophene-2-carboxylic acid 4-carbamimidoyl-benzylamide], the Ki under setting [2] came to 20600 nM.

With `Cc1c(C(=O)NCc2ccc(C(=N)N)cc2)nnn1Cc1ccc(Br)cc1` [ASP-558, 1-(4-Bromo-benzyl)-5-methyl-1H-1,2,3-triazole-4-carboxylic acid 4-carbamimidoyl-benzylamide], the Ki under setting [2] was 2620 nM.

Turning to `N=C(N)c1ccc(CNC(=O)c2cn(Cc3ccc(F)cc3)nn2)cc1` [ASP-559, 1-(4-Fluoro-benzyl)-1H-1,2,3-triazole-4-carboxylic acid 4-carbamimidoyl-benzylamide], the Ki under setting [2] is 8090 nM.

Consider `Cc1cc(C(=O)NCc2ccc(C(=N)N)cc2)c(C)n1-c1ccccc1` [ASP-576, 2,5-Dimethyl-1-phenyl-1H-pyrrole-3-carboxylic acid 4-carbamimidoyl-benzylamide], for which the Ki under setting [2] turned out to be 40 nM.

Consider `Cc1nn(Cc2ccccc2)c(C)c1C(=O)NCc1ccc(C(=N)N)cc1` [ASP-577, 1-Benzyl-3,5-dimethyl-1H-pyrazole-4-carboxylic acid 4-carbamimidoyl-benzylamide], for which the Ki under setting [2] worked out at 1130 nM.
